The source of these data is ChEMBL document CHEMBL1649069, “Discovery of a series of phosphonic acid-containing thiazoles and orally bioavailable diamide prodrugs that lower glucose in diabetic animals through inhibition of fructose-1,6-bisphosphatase” (J Med Chem, 2011).

Active and inactive are the calls of the source. No cut-off for these calls is given here.

The subject of series [1] is Rattus norvegicus. As to the kind of experiment: Antidiabetic activity in Sprague-Dawley rat assessed as decrease in glucose Cmax at 10 mg/kg, iv. Format: functional.
The target in series [2] is T1, Fructose-1,6-bisphosphatase 1 (Homo sapiens, UniProt P09467).
T1 sequence (P09467 whole entry): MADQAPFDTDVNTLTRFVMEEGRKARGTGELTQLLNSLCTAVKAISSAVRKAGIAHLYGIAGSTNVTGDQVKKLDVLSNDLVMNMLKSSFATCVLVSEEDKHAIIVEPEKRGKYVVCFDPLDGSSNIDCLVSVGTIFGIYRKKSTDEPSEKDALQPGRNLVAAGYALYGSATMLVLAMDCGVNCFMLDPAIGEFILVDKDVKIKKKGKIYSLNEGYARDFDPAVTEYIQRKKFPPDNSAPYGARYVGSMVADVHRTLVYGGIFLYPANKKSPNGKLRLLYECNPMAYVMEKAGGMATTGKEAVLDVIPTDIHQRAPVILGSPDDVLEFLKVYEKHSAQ
Description: Inhibition of human liver FBP

Series [3] relates to Rattus norvegicus. Description: Antidiabetic activity in Sprague-Dawley rat assessed as decrease in glucose Cmax at 10 mg/kg, po. It is filed as functional.
In series [4] the test system is Rattus norvegicus. As to the kind of experiment: Antihyperglycemic activity in Zucker fa/fa rat assessed as reduction in glucose level at 0.4 % w/w administered as food mixture. Format: functional, organism-based.
Series [5] is described as follows: Half life in Sprague-Dawley rat. Format: ADME, organism-based. Particulars: in vivo.
The nature of series [6]: Clearance in Sprague-Dawley rat. It is filed as ADME, organism-based. Particulars: in vivo.
Series [7] in a line: Volume of distribution in Sprague-Dawley rat. Particulars: in vivo. Format: ADME, organism-based.
Series [8] can be described thus: Plasma protein binding in Sprague-Dawley rat. Format: ADME, cell-free. Particulars: read-out: PPB (converted).
Series [9] in a line: Plasma protein binding in human. Format: ADME, cell-free. Particulars: read-out: PPB (converted).
Series [10] is described as follows: (§1) Oral bioavailability in Sprague-Dawley rat. Particulars: Sprague-Dawley, in vivo. Format: ADME, organism-based.
Series [11] deals with Rattus norvegicus. As to the kind of experiment: Antidiabetic activity in Sprague-Dawley rat assessed as decrease in glucose Cmax at 30 mg/kg.
For series [12], the system named is Rattus norvegicus. The series is described as §1. It is filed as ADME, organism-based. Particulars: in vivo.
A short description of series [13]: Oral bioavailability in rat. It is filed as ADME, organism-based. Particulars: in vivo.
Series [14] is described as follows: Oral bioavailability in dog. It is filed as ADME, organism-based, Canis lupus familiaris. Particulars: in vivo.

Turning to `COc1cccc(-c2sc(N)nc2-c2ccc(P(=O)(O)O)o2)c1`, the inhibition in vivo at 10 mg/kg in series [1] was determined as 0%. This compound showed an IC50 in series [2] of 21 nM.
Take `CCCc1sc(N)nc1C(=O)OCP(=O)(O)O`: in [1], the inhibition in vivo at 10 mg/kg amounted to 63%. In [2], this compound showed an IC50 of 50 nM.
Compound `Nc1nc(C(=O)NCP(=O)(O)O)c(-c2cccs2)s1` returned an IC50 in series [2] of 950 nM.
Turning to `CCOC(=O)CNP(=O)(Oc1ccccc1)c1ccc(-c2nc(N)sc2CC(C)C)o1` (stereo not drawn), the inhibition in vivo at 10 mg/kg in series [3] was determined as 51%.
For the compound `C=Cc1nc(-c2ccc(P(=O)(O)O)o2)c(CC(C)C)s1`, in [2], the IC50 came to 1200 nM.
Turning to `CCOC(=O)c1sc(N)nc1-c1ccc(P(=O)(O)O)o1`, the inhibition in vivo at 10 mg/kg in [1] was found to be 76%.
In series [2], `Nc1nc(-c2ccc(P(=O)(O)O)o2)c(C2CCC2)s1` returned an IC50 of 19 nM.
On to `CC(C)(C)c1ccc(-c2sc(N)nc2-c2ccc(P(=O)(O)O)o2)cc1`, for which the inhibition in vivo at 10 mg/kg in series [1] amounted to 6%.
With `CC(C)Cc1sc(C#N)nc1-c1ccc(P(=O)(O)O)o1`, the midpoint of inhibition in series [2], the IC50, lay at 2000 nM.
In the case of `CSc1ccc(-c2sc(N)nc2-c2ccc(P(=O)(O)O)o2)cc1`, the inhibition in vivo at 10 mg/kg in series [1] is 72%. Besides, half-maximal inhibition in series [2] (IC50) was put at 21 nM.
Regarding `Nc1nc(-c2ccc(P(=O)(O)O)o2)c(Cl)s1`, the inhibition in vivo at 10 mg/kg in [1] turned out to be 17%.
Turning to `Nc1nc(-c2ccc(P(=O)(O)O)o2)c(Cc2ccccc2)s1`, in series [2], the IC50 was 150 nM.
As for `Nc1nc(-c2ccc(P(=O)(O)O)o2)c(Br)s1`, the inhibition in vivo at 10 mg/kg in series [1] stood at 20%.
`Cc1sc(N)nc1-c1ccc(P(=O)(O)O)o1`: the IC50 in series [2] came to 120 nM. In other words, the sub-micromolar range.
Regarding `CCOC(=O)[C@H](C)NP(=O)(N[C@@H](C)C(=O)OCC)c1ccc(-c2nc(N)sc2CC(C)C)o1`, the inhibition result in [4] was “Active”. The inhibition in vivo at 10 mg/kg in series [3] is 59%.
On to `CCOC(=O)OC(C)OP(=O)(OC(C)OC(=O)OCC)c1ccc(-c2nc(N)sc2CC(C)C)o1` (stereo not drawn), for which the inhibition in vivo at 10 mg/kg in [3] was found to be 12%.
For the compound `CCCc1sc(N)nc1-c1cccc(P(=O)(O)O)c1`, in series [1], the inhibition in vivo at 10 mg/kg was found to be 0%. The compound also gave a 50% inhibitory concentration (IC50) in series [2] of 250 nM.
Consider `Nc1nc(-c2ccc(P(=O)(O)O)o2)c(-c2cccs2)s1`, for which the inhibition in vivo at 10 mg/kg in series [1] was 24%.
Compound `CCc1cc(F)c(N)c2nc(-c3ccc(P(=O)(O)O)o3)n(CC(C)C)c12` gave a half-life in series [5] of 45 min. The compound further had a clearance in series [6] of 4.33 mL/min/kg. The Vd in [7] came out at 0.25 L/kg. The fraction unbound is 0.01 in series [8] and 0.001 in series [9]. This compound also registered a bioavailability in [10] of 2%.
On to `Nc1nc(-c2ccc(P(=O)(O)O)o2)c(-c2ccco2)s1`, for which, in series [1], the inhibition in vivo at 10 mg/kg turned out to be 21%.
In turn, `Nc1nc(-c2cccc(P(=O)(O)O)c2)cs1` came in with an IC50 in series [2] of 1300 nM. This lies in the single-digit micromolar range.
Turning to `CCCSc1sc(N)nc1-c1ccc(P(=O)(O)O)o1`, the inhibition in vivo at 10 mg/kg in [1] came to 82%.
`CC(C)Cc1sc(N)nc1-c1ccc(P2(=O)OCC[C@H](c3cccc(Cl)c3)O2)o1` (stereo partly drawn): the inhibition in vivo at 30 mg/kg in [11] stood at 53%.
Take `Nc1nc(-c2ccc(P(=O)(O)O)o2)c(-c2ccc(Cl)cc2)s1`: in series [1], the inhibition in vivo at 10 mg/kg turned out to be 40%. The compound further returned an IC50 in series [2] of 13 nM.
In turn, `CC(C)Cc1sc(-c2cccnc2)nc1-c1ccc(P(=O)(O)O)o1` yielded an IC50 in series [2] of 5000 nM.
Consider `COc1ccccc1-c1sc(N)nc1-c1ccc(P(=O)(O)O)o1`, for which the inhibition in vivo at 10 mg/kg in series [1] was 66%.
As for `Nc1nc(-c2ccc(P(=O)(O)O)o2)c(I)s1`, the inhibition in vivo at 10 mg/kg in [1] was -2%. In [2], the IC50 was determined as 100 nM.
`Nc1nc(-c2ccc(P(=O)(O)O)o2)c(C(=O)OCc2ccccc2)s1`: the inhibition in vivo at 10 mg/kg in [1] amounted to 42%.
`CCOC(=O)[C@H](C)NP(=O)(Oc1ccccc1)c1ccc(-c2nc(N)sc2CC(C)C)o1` (stereo partly drawn): in series [11], the inhibition in vivo at 30 mg/kg was 46%.
In turn, `Cc1oc(-c2nc(N)sc2-c2ccccc2)nc1P(=O)(O)O` returned an IC50 in series [2] of 10000 nM.
The same measure, in the same setting: the result for `CC(C)Cc1sc(Cl)nc1-c1ccc(P(=O)(O)O)o1` reads 180 nM.
`Nc1nc(-c2ccc(P(=O)(O)O)o2)c(N2CCOCC2)s1`: in [1], the inhibition in vivo at 10 mg/kg stood at 75%. In series [2], this compound came in with an IC50 of 16 nM.
In [2], `CCc1nc(-c2ccc(P(=O)(O)O)o2)c(CC(C)C)s1` displayed an IC50 of 400 nM. This lies in the sub-micromolar range.
Still for that read-out and setting: the result for `CC(C)(C)Sc1sc(N)nc1-c1ccc(P(=O)(O)O)o1` reads 24 nM; that for `Nc1nc(-c2ccc(P(=O)(O)O)o2)c(CC2CC2)s1`, 20 nM.
With `CS(=O)(=O)c1ccc(-c2sc(N)nc2-c2ccc(P(=O)(O)O)o2)cc1`, the inhibition in vivo at 10 mg/kg in series [1] came to 78%. Further, the IC50 in [2] worked out at 41 nM.
Turning to `CCOC(=O)OCOP(=O)(OCOC(=O)OCC)c1ccc(-c2nc(N)sc2CC(C)C)o1`, the inhibition in vivo at 30 mg/kg in series [11] was found to be 40%.
Take `CC(C)Cc1sc(CO)nc1-c1ccc(P(=O)(O)O)o1`: in series [1], the inhibition in vivo at 10 mg/kg was 8%. In series [2], this compound gave an IC50 of 220 nM.
The matching figures for `CC(C)Sc1sc(N)nc1-c1ccc(P(=O)(O)O)o1`: 48% and 24 nM.
For `Nc1nc(-c2ccc(P(=O)(O)O)o2)c(-c2ccc(-c3ccccc3)cc2)s1`, in [1], the inhibition in vivo at 10 mg/kg turned out to be 36%.
Still for that read-out and setting: in the case of `Cc1nc(-c2ccc(P(=O)(O)O)o2)c(CC(C)C)s1` it was 55%.
Take `COC(=O)c1ccc(-c2sc(N)nc2-c2ccc(P(=O)(O)O)o2)cc1`: in [1], the inhibition in vivo at 10 mg/kg stood at 78%. For the same compound, in series [2], half-maximal inhibition (IC50) required 14 nM.
As to `CC(C)Cc1sc(N)nc1-c1ccc(P(=O)(O)O)o1` [MB-05032], the inhibition in vivo at 10 mg/kg in series [1] was 65%. For the same compound, the half-life in series [5] is 39 min. Also, the clearance in series [6] is 4 mL/min/kg. In [7], the Vd is 0.18 L/kg. Further, the fraction unbound in series [8] was 0.1; in series [9] it was 0.07. The F in series [12] is 4%.
Regarding `COc1ccc(-c2sc(N)nc2-c2ccc(P(=O)(O)O)o2)cc1`, the inhibition in vivo at 10 mg/kg in series [1] is 63%. Further, the midpoint of inhibition in [2], the IC50, lay at 22 nM.
The matching figures for `CC(=O)c1ccc(-c2sc(N)nc2-c2ccc(P(=O)(O)O)o2)cc1`: 43% and 32 nM.
For `CCOC(=O)[C@H](C)NP(=O)(N[C@@H](C)C(=O)OCC)c1ccc(-c2nc3c(N)c(F)cc(CC)c3n2CC(C)C)o1`, the bioavailability in [13] was above 10%; in [14] it was above 10%; in series [10] it was 5%.
As to `CC(C)Cn1c(-c2ccc(P(=O)(O)O)o2)nc2c(N)ncnc21`, the IC50 in series [2] is 800 nM. In other words, the sub-micromolar range.
On the same count and under the same terms, in the case of `CCSc1sc(N)nc1-c1ccc(P(=O)(O)O)o1` it was 33 nM; in that of `CSc1nc(-c2ccc(P(=O)(O)O)o2)c(CC(C)C)s1`, 890 nM.
Take `CCOC(=O)C(C)(C)NP(=O)(NC(C)(C)C(=O)OCC)c1ccc(-c2nc(N)sc2CC(C)C)o1`: the inhibition in vivo at 10 mg/kg in [3] came out at 45%.
For the compound `CC(C)Cc1sc(Br)nc1-c1ccc(P(=O)(O)O)o1`, the inhibition in vivo at 10 mg/kg in series [1] came out at 3%.
For `Nc1nc(-c2ccc(F)c(P(=O)(O)O)c2)c(-c2ccccc2)s1`, the inhibition in vivo at 10 mg/kg in [1] is 0%.
As for `CC(C)Cc1sc(C(N)=O)nc1-c1ccc(P(=O)(O)O)o1`, the IC50 in series [2] was found to be 2750 nM.
As for `Nc1nc(-c2ccc(P(=O)(O)O)o2)c(-c2ccc3ccccc3c2)s1`, the inhibition in vivo at 10 mg/kg in series [1] stood at 20%. Moreover, the IC50 in [2] came to 12 nM.
The compound `CCCc1sc(N)nc1-c1ccc(P(=O)(O)O)s1` had an IC50 in series [2] above 10000 nM.
Regarding `Nc1nc(-c2ccc(P(=O)(O)O)o2)c(-c2ccccc2)s1`, the inhibition in vivo at 10 mg/kg in series [1] came to 76%. This compound gave an IC50 in series [2] of 14 nM.
With `Nc1nc(-c2ccc(P(=O)(O)O)o2)c(-c2ccc(F)cc2)s1`, in series [1], the inhibition in vivo at 10 mg/kg was 60%.
`Nc1nc(-c2ccc(P(=O)(O)O)o2)c(Sc2ccccc2)s1` returned an IC50 in [2] of 300 nM.
Still for that read-out and setting: the result for `Nc1nc(-n2ccc(P(=O)(O)O)c2)c(-c2ccccc2)s1` reads above 10000 nM.

The term inhibition in vivo denotes the drop in the measured response relative to a control, in per cent. One may read the IC50 as the point on the concentration scale where inhibition reaches its midpoint. A high value points to weaker potency in that assay. In general, half-life refers to the time in which the quantity being followed falls by half. Higher therefore signals slow loss. As usually defined, the clearance is a measure of how efficiently the substance is removed, as volume per time. A higher clearance goes with a high capacity for elimination. Broadly, the Vd is a proportionality between amount in the body and measured concentration, not a real space. A higher Vd goes with wide distribution into tissue. The term bioavailability denotes dose-corrected exposure relative to a reference, in per cent. A low value points to little systemic uptake.
